Laboratory results from the NIST ThermoML archive (doi:10.1016/j.jct.2006.09.014).
Values joined by “and” are separate entries in the source; they are usually repeats but may differ in a detail not shown here. Identical values can stand only once.

Conditions: Liquid; for mass density: Bellows volumetry; for vapor or sublimation pressure: Closed cell (Static) method

CCCC [butane]
Conditions	mass density [kg/m3]
280 K, 145 kPa	594.1
280 K, 168.4 kPa	594.15
280 K, 191.6 kPa	594.23
280 K, 215 kPa	594.24
280 K, 238.3 kPa	594.32
280 K, 261.7 kPa	594.34
280 K, 285 kPa	594.4
300 K, 271.4 kPa	571.6
300 K, 294.8 kPa	571.61
300 K, 318.1 kPa	571.67
300 K, 341.4 kPa	571.69
300 K, 364.8 kPa	571.72
300 K, 388.1 kPa	571.76
300 K, 411.5 kPa	571.8
320 K, 469.7 kPa	547.03
320 K, 493 kPa	547.12
320 K, 516.3 kPa	547.15
320 K, 539.6 kPa	547.22
320 K, 563 kPa	547.25
320 K, 586.3 kPa	547.25
320 K, 609.6 kPa	547.3
340 K, 763.1 kPa	520.53
340 K, 786.4 kPa	520.62
340 K, 809.7 kPa	520.68
340 K, 833 kPa	520.72
340 K, 856.3 kPa	520.82
340 K, 879.7 kPa	520.9
340 K, 903 kPa	520.96
360 K, 1176.4 kPa	490.56
360 K, 1199.7 kPa	490.68
360 K, 1223 kPa	490.79
360 K, 1246.3 kPa	490.91
360 K, 1269.6 kPa	490.99
360 K, 1292.9 kPa	491.01
360 K, 1316.1 kPa	491.18
380 K, 1759.6 kPa	454.68
380 K, 1782.8 kPa	454.9
380 K, 1806.1 kPa	455.09
380 K, 1829.3 kPa	455.25
380 K, 1852.5 kPa	455.46
380 K, 1875.8 kPa	455.6
380 K, 1899 kPa	455.78
424 K, 3720.3 kPa	289.99
424 K, 3720.4 kPa	289.82
424 K, 3728.4 kPa	294.73
424 K, 3737.3 kPa	298.52

Conditions	mass density [kg/m3]	vapor or sublimation pressure
280 K	594.08	133 kPa
300 K	571.57	257.5 kPa
320 K	547.03	456.2 kPa
340 K	520.5	752 kPa
360 K	490.55	1170.2 kPa
370 K	–	1434.9 kPa
380 K	454.55	1739.9 kPa and 1740.4 kPa
390 K	–	2092.1 kPa
400 K	–	2495.2 kPa and 2494.6 kPa
410 K	–	2955 kPa
420 K	–	3482.5 kPa
422 K	–	3597.5 kPa
424 K	288.22	3716.9 kPa
